Reference: ChEMBL document CHEMBL1148264, “Evaluation of series of isobenzofuranone dimers as PKCalpha ligands: implication for the distance between the two ligand binding sites” (Bioorg Med Chem Lett, 2004)

The compounds below were run against Protein kinase C alpha type (Homo sapiens) (UniProt P17252) (assay: Displacement of [3H]PDBu from protein kinase C alpha at 100 uM; Range 2 to 40).
With CC(=O)OC[C@@]1(CO)OC(=O)c2c(OCc3ccccc3)cccc21 the inhibition was 30%.

The compounds below were run against Protein kinase C alpha type (Homo sapiens) (UniProt P17252) (assay: Displacement of [3H]PDBu from protein kinase C alpha at 100 uM; Range 0 to 20).
O=C(CCCCC(=O)OC[C@@]1(CO)OC(=O)c2c(OCc3ccccc3)cccc21)CC[C@@]1(CO)OC(=O)c2c(OCc3ccccc3)cccc21 was tested, and the inhibition was 18%.
In the case of O=C(CCCCCCC(=O)OC[C@@]1(CO)OC(=O)c2c(OCc3ccccc3)cccc21)CC[C@@]1(CO)OC(=O)c2c(OCc3ccccc3)cccc21, the inhibition is reported as 19%.
With CC(=O)OC[C@@]1(CO)OC(=O)c2c(OCCCCCCCCCCCCCCCCCCCCCCCCOc3cccc4c3C(=O)O[C@]4(CO)COC(C)=O)cccc21 the inhibition was 19%.
In the case of O=C(CCCCCCCCCCCCCCCCCCC(=O)OC[C@@]1(CO)OC(=O)c2c(OCc3ccccc3)cccc21)CC[C@@]1(CO)OC(=O)c2c(OCc3ccccc3)cccc21, the inhibition is reported as 10%.
In the case of O=C(CC[C@@]1(CO)OC(=O)c2c(OCc3ccccc3)cccc21)c1ccc(C(=O)OC[C@@]2(CO)OC(=O)c3c(OCc4ccccc4)cccc32)cc1, the inhibition is reported as 2%.
Work on O=C(CC[C@@]1(CO)OC(=O)c2c(OCc3ccccc3)cccc21)c1cccc(C(=O)OC[C@@]2(CO)OC(=O)c3c(OCc4ccccc4)cccc32)c1 yielded an inhibition of 4%.
Work on O=C(CC[C@@]1(CO)OC(=O)c2c(OCc3ccccc3)cccc21)c1ccccc1C(=O)OC[C@@]1(CO)OC(=O)c2c(OCc3ccccc3)cccc21 yielded an inhibition of 4%.

What follows are compounds tested against Protein kinase C alpha type (Homo sapiens) (UniProt P17252) (assay: Displacement of [3H]PDBu from protein kinase C alpha at 100 uM; Range 80 to 100).
In the case of CCCCCCCCCCCC(=O)OC[C@@]1(CO)OC(=O)c2c(OCc3ccccc3)cccc21, the inhibition is reported as 90%.
In the case of CC(=O)OC[C@@]1(CO)OC(=O)c2c(OCCCCCCCCCCCCCCCCOc3cccc4c3C(=O)O[C@]4(CO)COC(C)=O)cccc21, the inhibition is reported as 91%.
CC(=O)OC[C@@]1(CO)OC(=O)c2c(OCCCCCCCCCCCCCOc3cccc4c3C(=O)O[C@]4(CO)COC(C)=O)cccc21 was tested, and the inhibition was 85%.
CC(=O)OC[C@@]1(CO)OC(=O)c2c(OCCCCCCCCCCCCCCCOc3cccc4c3C(=O)O[C@]4(CO)COC(C)=O)cccc21 gave an inhibition of 92%.
CC(=O)OC[C@@]1(CO)OC(=O)c2c(OCCCCCCCCCCCCCCOc3cccc4c3C(=O)O[C@]4(CO)COC(C)=O)cccc21 was tested, and the inhibition was 90%.

Each compound was assayed against Protein kinase C alpha type (Homo sapiens) (UniProt P17252) (assay: Displacement of [3H]PDBu from protein kinase C alpha at 100 uM; Range 20 to 40).
Compound CC(=O)OC[C@@]1(CO)OC(=O)c2c(OCCCCCCCCCCCCCCCCCCCCCCOc3cccc4c3C(=O)O[C@]4(CO)COC(C)=O)cccc21 has an inhibition of 25%.

The compounds below were run against Protein kinase C alpha type (Homo sapiens) (UniProt P17252) (assay: Displacement of [3H]PDBu from protein kinase C alpha at 100 uM; Range 60 to 80).
In the case of CCCCCCCCCCCCOc1cccc2c1C(=O)O[C@]2(CO)COC(C)=O, the inhibition is reported as 70%.
O=C(CCCCCCCCCCCCC(=O)OC[C@@]1(CO)OC(=O)c2c(OCc3ccccc3)cccc21)CC[C@@]1(CO)OC(=O)c2c(OCc3ccccc3)cccc21 was tested, and the inhibition was 70%.
O=C(CCCCCCCCCCC(=O)OC[C@@]1(CO)OC(=O)c2c(OCc3ccccc3)cccc21)CC[C@@]1(CO)OC(=O)c2c(OCc3ccccc3)cccc21 gave an inhibition of 70%.
CC(=O)OC[C@@]1(CO)OC(=O)c2c(OCCCCCCCCCCCCOc3cccc4c3C(=O)O[C@]4(CO)COC(C)=O)cccc21 gave an inhibition of 70%.

The compounds below were run against Protein kinase C alpha type (Homo sapiens) (UniProt P17252) (assay: Displacement of [3H]PDBu from protein kinase C alpha at 100 uM; Range 20 to 30).
O=C(CCCCCCCCCCCCCCCCC(=O)OC[C@@]1(CO)OC(=O)c2c(OCc3ccccc3)cccc21)CC[C@@]1(CO)OC(=O)c2c(OCc3ccccc3)cccc21 was tested, and the inhibition was 30%.

These compounds were tested against Protein kinase C alpha type (Homo sapiens) (UniProt P17252) (assay: Displacement of [3H]PDBu from protein kinase C alpha at 100 uM; Range 40 to 60).
For O=C(CCCCCCCCC(=O)OC[C@@]1(CO)OC(=O)c2c(OCc3ccccc3)cccc21)CC[C@@]1(CO)OC(=O)c2c(OCc3ccccc3)cccc21, the inhibition was 41%.
Compound O=C(CCCCCCCCCCCCCCC(=O)OC[C@@]1(CO)OC(=O)c2c(OCc3ccccc3)cccc21)CC[C@@]1(CO)OC(=O)c2c(OCc3ccccc3)cccc21 has an inhibition of 54%.
Compound CC(=O)OC[C@@]1(CO)OC(=O)c2c(OCCCCCCCCCCCOc3cccc4c3C(=O)O[C@]4(CO)COC(C)=O)cccc21 has an inhibition of 60%.
Compound CC(=O)OC[C@@]1(CO)OC(=O)c2c(OCCCCCCCCCOc3cccc4c3C(=O)O[C@]4(CO)COC(C)=O)cccc21 has an inhibition of 42%.
CC(=O)OC[C@@]1(CO)OC(=O)c2c(OCCCCCCCCCCOc3cccc4c3C(=O)O[C@]4(CO)COC(C)=O)cccc21 gave an inhibition of 45%.
